# Assay results published in PubChem BioAssay (NCI).
#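 Briefly, cells in 96-well plates were exposed to five compound concentrations for 48 h, and endpoints were estimated by linear interpolation. The concentration for full growth arrest is given as TGI.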
# Tests used:
# Assay in all cases: DTP human tumour cell line panel, 48 h
# MALME-3M melanoma = tested on: MALME-3M melanoma
# HCC-2998 colon = tested on: HCC-2998 colon
# SF-539 CNS = tested on: SF-539 CNS
# HCT-116 colon = tested on: HCT-116 colon
# LOX IMVI melanoma = tested on: LOX IMVI melanoma
# NCI-H23 lung = tested on: NCI-H23 lung
# UACC-257 melanoma = tested on: UACC-257 melanoma
# A498 renal = tested on: A498 renal
# MOLT-4 leukemia = tested on: MOLT-4 leukemia
# SK-MEL-5 melanoma = tested on: SK-MEL-5 melanoma
# ACHN renal = tested on: ACHN renal
# A549 NSCLC = tested on: A549 NSCLC
# SF-268 CNS = tested on: SF-268 CNS
# DMS 273 small cell lung = tested on: DMS 273 small cell lung
# SK-MEL-2 melanoma = tested on: SK-MEL-2 melanoma
# HL-60(TB) leukemia = tested on: HL-60(TB) leukemia
# OVCAR-5 ovarian = tested on: OVCAR-5 ovarian
# HT29 colon = tested on: HT29 colon
# M14 melanoma = tested on: M14 melanoma
# NCI-H460 lung = tested on: NCI-H460 lung
# IGROV1 ovarian = tested on: IGROV1 ovarian
# SF-295 CNS = tested on: SF-295 CNS
# SNB-19 CNS = tested on: SNB-19 CNS
# DLD-1 colon = tested on: DLD-1 colon
# EKVX NSCLC = tested on: EKVX NSCLC
# SNB-75 CNS = tested on: SNB-75 CNS
# RXF-631 renal = tested on: RXF-631 renal
# HOP-92 NSCLC = tested on: HOP-92 NSCLC
# CCRF-CEM leukemia = tested on: CCRF-CEM leukemia
# TK-10 renal = tested on: TK-10 renal
# SK-MEL-28 melanoma = tested on: SK-MEL-28 melanoma
# K-562 leukemia = tested on: K-562 leukemia
# RXF 393 renal = tested on: RXF 393 renal
# SR leukemia = tested on: SR leukemia
# HOP-18 NSCLC = tested on: HOP-18 NSCLC
# U251 CNS = tested on: U251 CNS
# SW-620 colon = tested on: SW-620 colon
# SNB-78 CNS = tested on: SNB-78 CNS
# COLO 205 colon = tested on: COLO 205 colon
# XF 498 CNS = tested on: XF 498 CNS
# HCT-15 colon = tested on: HCT-15 colon
# OVCAR-8 ovarian = tested on: OVCAR-8 ovarian
# SN12C renal = tested on: SN12C renal
# RPMI-8226 leukemia = tested on: RPMI-8226 leukemia
# LXFL 529 NSCLC = tested on: LXFL 529 NSCLC
# DMS 114 small cell lung = tested on: DMS 114 small cell lung
# KM12 colon = tested on: KM12 colon
# NCI-H226 lung = tested on: NCI-H226 lung
# KM20L2 colon = tested on: KM20L2 colon
# OVCAR-3 ovarian = tested on: OVCAR-3 ovarian
# UACC-62 melanoma = tested on: UACC-62 melanoma
# UO-31 renal = tested on: UO-31 renal
# NCI-H522 lung = tested on: NCI-H522 lung
# CAKI-1 renal = tested on: CAKI-1 renal
# 786-0 renal = tested on: 786-0 renal
# HOP-62 NSCLC = tested on: HOP-62 NSCLC
# OVCAR-4 ovarian = tested on: OVCAR-4 ovarian
# M19-MEL melanoma = tested on: M19-MEL melanoma
# SK-OV-3 ovarian = tested on: SK-OV-3 ovarian
smiles,measurement,setting,value
C=C=CC(NC(=O)c1ccccc1)(C(=O)O)C(F)(F)F (stereo unspecified),TGI,MALME-3M melanoma,> 100 µM
same,TGI,HCC-2998 colon,> 100 µM
same,TGI,SF-539 CNS,> 100 µM
same,TGI,HCT-116 colon,> 100 µM
same,TGI,LOX IMVI melanoma,> 100 µM
same,TGI,NCI-H23 lung,> 100 µM
same,TGI,UACC-257 melanoma,> 100 µM
same,TGI,A498 renal,> 100 µM
same,TGI,MOLT-4 leukemia,> 100 µM
same,TGI,SK-MEL-5 melanoma,> 100 µM
same,TGI,ACHN renal,> 100 µM
same,TGI,A549 NSCLC,> 100 µM
same,TGI,SF-268 CNS,> 100 µM
same,TGI,DMS 273 small cell lung,> 100 µM
same,TGI,SK-MEL-2 melanoma,> 100 µM
same,TGI,HL-60(TB) leukemia,> 100 µM
same,TGI,OVCAR-5 ovarian,> 100 µM
same,TGI,HT29 colon,> 100 µM
same,TGI,M14 melanoma,> 100 µM
same,TGI,NCI-H460 lung,> 100 µM
same,TGI,IGROV1 ovarian,> 100 µM
same,TGI,SF-295 CNS,> 100 µM
same,TGI,SNB-19 CNS,> 100 µM
same,TGI,DLD-1 colon,> 100 µM
same,TGI,EKVX NSCLC,> 100 µM
same,TGI,SNB-75 CNS,> 100 µM
same,TGI,RXF-631 renal,> 100 µM
same,TGI,HOP-92 NSCLC,> 100 µM
same,TGI,CCRF-CEM leukemia,> 100 µM
same,TGI,TK-10 renal,> 100 µM
same,TGI,SK-MEL-28 melanoma,> 100 µM
same,TGI,K-562 leukemia,> 100 µM
same,TGI,RXF 393 renal,> 100 µM
same,TGI,SR leukemia,> 100 µM
same,TGI,HOP-18 NSCLC,> 100 µM
same,TGI,U251 CNS,> 100 µM
same,TGI,SW-620 colon,> 100 µM
same,TGI,SNB-78 CNS,> 100 µM
same,TGI,COLO 205 colon,> 100 µM
same,TGI,XF 498 CNS,> 100 µM
same,TGI,HCT-15 colon,> 100 µM
same,TGI,OVCAR-8 ovarian,> 100 µM
same,TGI,SN12C renal,> 100 µM
same,TGI,RPMI-8226 leukemia,> 100 µM
same,TGI,LXFL 529 NSCLC,> 100 µM
same,TGI,DMS 114 small cell lung,> 100 µM
same,TGI,KM12 colon,> 100 µM
same,TGI,NCI-H226 lung,> 100 µM
C=C(C(=C)P(=S)(C(C)C)C(C)C)P(=S)(C(C)C)C(C)C,TGI,MALME-3M melanoma,> 100 µM
same,TGI,HCC-2998 colon,> 100 µM
same,TGI,SF-539 CNS,> 100 µM
same,TGI,KM20L2 colon,> 100 µM
same,TGI,HCT-116 colon,> 100 µM
same,TGI,LOX IMVI melanoma,> 100 µM
same,TGI,NCI-H23 lung,> 100 µM
same,TGI,OVCAR-3 ovarian,> 100 µM
same,TGI,UACC-257 melanoma,> 100 µM
same,TGI,A498 renal,> 100 µM
same,TGI,MOLT-4 leukemia,> 100 µM
same,TGI,SK-MEL-5 melanoma,> 100 µM
same,TGI,ACHN renal,> 100 µM
same,TGI,A549 NSCLC,> 100 µM
same,TGI,UACC-62 melanoma,> 100 µM
same,TGI,SF-268 CNS,> 100 µM
same,TGI,DMS 273 small cell lung,> 100 µM
same,TGI,HL-60(TB) leukemia,> 100 µM
same,TGI,OVCAR-5 ovarian,> 100 µM
same,TGI,HT29 colon,> 100 µM
same,TGI,M14 melanoma,> 100 µM
same,TGI,NCI-H460 lung,> 100 µM
same,TGI,IGROV1 ovarian,> 100 µM
same,TGI,SF-295 CNS,> 100 µM
same,TGI,SNB-19 CNS,> 100 µM
same,TGI,DLD-1 colon,> 100 µM
same,TGI,UO-31 renal,> 100 µM
same,TGI,EKVX NSCLC,> 100 µM
same,TGI,SNB-75 CNS,> 100 µM
same,TGI,NCI-H522 lung,> 100 µM
same,TGI,RXF-631 renal,> 100 µM
same,TGI,HOP-92 NSCLC,> 100 µM
same,TGI,CCRF-CEM leukemia,> 100 µM
same,TGI,CAKI-1 renal,> 100 µM
same,TGI,TK-10 renal,> 100 µM
same,TGI,786-0 renal,> 100 µM
same,TGI,HOP-62 NSCLC,> 100 µM
same,TGI,OVCAR-4 ovarian,> 100 µM
same,TGI,SK-MEL-28 melanoma,> 100 µM
same,TGI,K-562 leukemia,> 100 µM
same,TGI,RXF 393 renal,> 100 µM
same,TGI,SR leukemia,> 100 µM
same,TGI,M19-MEL melanoma,> 100 µM
same,TGI,U251 CNS,> 100 µM
same,TGI,SW-620 colon,> 100 µM
same,TGI,SNB-78 CNS,> 100 µM
same,TGI,COLO 205 colon,> 100 µM
same,TGI,XF 498 CNS,> 100 µM
same,TGI,HCT-15 colon,> 100 µM
same,TGI,OVCAR-8 ovarian,> 100 µM
same,TGI,SN12C renal,> 100 µM
same,TGI,RPMI-8226 leukemia,> 100 µM
same,TGI,LXFL 529 NSCLC,> 100 µM
same,TGI,DMS 114 small cell lung,> 100 µM
same,TGI,SK-OV-3 ovarian,> 100 µM
same,TGI,KM12 colon,> 100 µM
same,TGI,NCI-H226 lung,> 100 µM
N#CC1=C(O)NC(O)=C(C#N)C1c1ccc(C2C(C#N)=C(O)NC(O)=C2C#N)cc1,TGI,MALME-3M melanoma,> 100 µM
same,TGI,HCC-2998 colon,> 100 µM
same,TGI,SF-539 CNS,> 100 µM
same,TGI,KM20L2 colon,> 100 µM
same,TGI,HCT-116 colon,> 100 µM
same,TGI,LOX IMVI melanoma,> 100 µM
same,TGI,NCI-H23 lung,> 100 µM
same,TGI,OVCAR-3 ovarian,> 100 µM
same,TGI,UACC-257 melanoma,> 100 µM
same,TGI,A498 renal,> 100 µM
same,TGI,MOLT-4 leukemia,> 100 µM
same,TGI,SK-MEL-5 melanoma,> 100 µM
same,TGI,ACHN renal,> 100 µM
same,TGI,A549 NSCLC,> 100 µM
same,TGI,UACC-62 melanoma,> 100 µM
same,TGI,SF-268 CNS,> 100 µM
same,TGI,DMS 273 small cell lung,> 100 µM
same,TGI,SK-MEL-2 melanoma,> 100 µM
same,TGI,HL-60(TB) leukemia,75.3 µM
same,TGI,HT29 colon,> 100 µM
same,TGI,M14 melanoma,> 100 µM
same,TGI,NCI-H460 lung,> 100 µM
same,TGI,IGROV1 ovarian,> 100 µM
same,TGI,SF-295 CNS,> 100 µM
same,TGI,SNB-19 CNS,> 100 µM
same,TGI,DLD-1 colon,> 100 µM
same,TGI,UO-31 renal,> 100 µM
same,TGI,EKVX NSCLC,> 100 µM
same,TGI,SNB-75 CNS,> 100 µM
same,TGI,NCI-H522 lung,43.6 µM
same,TGI,RXF-631 renal,> 100 µM
same,TGI,CCRF-CEM leukemia,> 100 µM
same,TGI,CAKI-1 renal,> 100 µM
same,TGI,TK-10 renal,> 100 µM
same,TGI,786-0 renal,> 100 µM
same,TGI,HOP-62 NSCLC,> 100 µM
same,TGI,OVCAR-4 ovarian,> 100 µM
same,TGI,SK-MEL-28 melanoma,> 100 µM
same,TGI,K-562 leukemia,> 100 µM
same,TGI,RXF 393 renal,> 100 µM
same,TGI,HOP-18 NSCLC,> 100 µM
same,TGI,M19-MEL melanoma,> 100 µM
same,TGI,U251 CNS,> 100 µM
same,TGI,SW-620 colon,> 100 µM
same,TGI,SNB-78 CNS,> 100 µM
same,TGI,COLO 205 colon,63.1 µM
same,TGI,XF 498 CNS,> 100 µM
same,TGI,HCT-15 colon,> 100 µM
same,TGI,OVCAR-8 ovarian,> 100 µM
same,TGI,SN12C renal,> 100 µM
same,TGI,RPMI-8226 leukemia,> 100 µM
same,TGI,LXFL 529 NSCLC,> 100 µM
same,TGI,DMS 114 small cell lung,> 100 µM
same,TGI,SK-OV-3 ovarian,> 100 µM
same,TGI,KM12 colon,> 100 µM
same,TGI,NCI-H226 lung,> 100 µM
